{
  "source": "paper PMC7004565",
  "about": "“Nucleotide inhibition of the pancreatic ATP-sensitive K^+ channel explored with patch-clamp fluorometry” (eLife, 2020)",
  "biological_target": "Kir6.2*,C166S-GFP + SUR1 (Homo sapiens, UniProt Q14654, C166S)",
  "sequence (Q14654 whole entry C166S, the tested form may be a part)": "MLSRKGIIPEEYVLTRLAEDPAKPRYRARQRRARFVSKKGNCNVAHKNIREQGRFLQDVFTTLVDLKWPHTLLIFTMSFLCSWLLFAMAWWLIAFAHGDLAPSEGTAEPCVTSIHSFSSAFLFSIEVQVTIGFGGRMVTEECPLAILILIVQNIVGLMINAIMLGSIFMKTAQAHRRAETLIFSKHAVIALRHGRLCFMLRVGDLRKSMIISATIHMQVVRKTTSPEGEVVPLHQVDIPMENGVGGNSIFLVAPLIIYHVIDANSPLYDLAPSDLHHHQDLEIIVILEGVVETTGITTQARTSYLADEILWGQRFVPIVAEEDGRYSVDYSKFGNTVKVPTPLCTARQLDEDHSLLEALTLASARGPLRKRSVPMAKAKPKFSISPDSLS",
  "sequence (Q09428 whole entry partner, the tested form may be a part)": "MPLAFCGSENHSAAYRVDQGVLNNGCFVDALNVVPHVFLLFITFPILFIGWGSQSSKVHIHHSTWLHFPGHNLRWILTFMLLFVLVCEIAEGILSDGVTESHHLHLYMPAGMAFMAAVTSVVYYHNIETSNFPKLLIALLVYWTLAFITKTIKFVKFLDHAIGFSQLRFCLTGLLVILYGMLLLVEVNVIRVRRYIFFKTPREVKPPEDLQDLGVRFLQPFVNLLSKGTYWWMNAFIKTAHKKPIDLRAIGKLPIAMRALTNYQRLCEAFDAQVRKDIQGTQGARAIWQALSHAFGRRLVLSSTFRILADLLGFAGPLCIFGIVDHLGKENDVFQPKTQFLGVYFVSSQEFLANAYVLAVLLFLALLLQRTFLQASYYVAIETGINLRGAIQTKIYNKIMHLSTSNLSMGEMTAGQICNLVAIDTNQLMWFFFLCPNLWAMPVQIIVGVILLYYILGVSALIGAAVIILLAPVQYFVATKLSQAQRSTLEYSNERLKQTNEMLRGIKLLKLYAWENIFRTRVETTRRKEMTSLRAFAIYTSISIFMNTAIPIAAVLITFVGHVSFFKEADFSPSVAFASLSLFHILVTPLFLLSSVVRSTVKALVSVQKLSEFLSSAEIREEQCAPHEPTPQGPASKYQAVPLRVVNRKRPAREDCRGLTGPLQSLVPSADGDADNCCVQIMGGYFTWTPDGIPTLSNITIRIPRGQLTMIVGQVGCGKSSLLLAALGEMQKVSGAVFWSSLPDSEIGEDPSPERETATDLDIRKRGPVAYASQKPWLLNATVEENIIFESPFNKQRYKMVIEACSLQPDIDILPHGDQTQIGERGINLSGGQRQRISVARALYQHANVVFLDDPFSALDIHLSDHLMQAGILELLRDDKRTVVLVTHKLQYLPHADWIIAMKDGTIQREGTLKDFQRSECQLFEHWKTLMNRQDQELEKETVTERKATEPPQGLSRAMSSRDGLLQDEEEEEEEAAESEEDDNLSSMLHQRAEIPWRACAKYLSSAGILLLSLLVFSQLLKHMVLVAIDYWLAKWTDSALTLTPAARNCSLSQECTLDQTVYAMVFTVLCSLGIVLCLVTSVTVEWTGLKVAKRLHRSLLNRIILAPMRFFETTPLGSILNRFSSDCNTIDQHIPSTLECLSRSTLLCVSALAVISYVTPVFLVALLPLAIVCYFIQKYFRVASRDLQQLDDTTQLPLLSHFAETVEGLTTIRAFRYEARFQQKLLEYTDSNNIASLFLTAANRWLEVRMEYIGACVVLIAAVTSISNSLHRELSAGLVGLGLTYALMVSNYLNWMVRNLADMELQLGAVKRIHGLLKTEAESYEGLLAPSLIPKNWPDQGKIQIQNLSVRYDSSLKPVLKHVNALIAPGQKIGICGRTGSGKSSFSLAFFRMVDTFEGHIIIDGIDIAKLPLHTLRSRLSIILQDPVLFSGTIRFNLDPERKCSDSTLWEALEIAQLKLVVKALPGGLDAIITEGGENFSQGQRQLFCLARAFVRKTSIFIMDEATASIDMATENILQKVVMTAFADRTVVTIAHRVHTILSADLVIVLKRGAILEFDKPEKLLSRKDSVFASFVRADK",
  "assay": "FRET (ANAP quenching) nucleotide binding in unroofed membranes",
  "set-up": "ANAP labelling is specific and only full-length Kir6.2 is expressed at the cell membrane; expressed in transfected cells; host or cells: HEK-293T",
  "conditions": "Hill fit",
  "source_text": "To measure nucleotide binding, cells transfected with Kir6.2*-GFP + SUR1 were briefly sonicated, leaving behind unroofed plasma membrane fragments ([Heuser, 2000]; [Zagotta et al., 2016]; [Puljung et al., 2019]) containing ANAP-labelled KATP channels with the intracellular nucleotide-binding sites exposed to the bath solution. The sample was excited with a 385 nm LED and emitted fluorescence from the membrane fragments was passed through a spectrometer, allowing us to separate ANAP, GFP, and TNP-ATP fluorescence by peak wavelength (Figure 1E,F). As expected from FRET, increasing the concentration of TNP-ATP caused a decrement in the ANAP peak at 472 nm and a concomitant increase in the TNP-ATP peak at 561 nm (Figure 1F). We used the quenching of the ANAP peak as a direct measure of TNP-ATP binding as this signal was specific to KATP. In contrast, the peak TNP-ATP fluorescence may include contributions from both specific and non-specific nucleotide binding, as well as direct excitation of TNP-ATP in solution by the 385 nm excitation light. Due to the sharp cut-off of the GFP emission spectrum at shorter wavelengths, our measurements of peak ANAP fluorescence were unaffected by the presence of the GFP tag on Kir6.2.\nEpifluorescence imaging and spectroscopy were performed using a Nikon Eclipse TE2000-U microscope with a 60x water immersion objective (Plan Apo VC, NA = 1.2, Nikon; Kingston upon Thames, UK) or a 100x oil immersion objective (Nikon, Apo TIRF, NA = 1.49). […] Fluorescence spectra were collected by exciting ANAP as above but using a 400 nm long-pass emission filter (ThorLabs), then passing emitted light through an IsoPlane 160 Spectrometer (Princeton Instruments; Trenton, NJ) with a 300 grooves mm^-1 grating. […]\nUnroofed membranes were prepared as described previously ([Heuser, 2000]; [Zagotta et al., 2016]; [Puljung et al., 2019]). […] Unroofed membrane fragments were nearly invisible in bright-field images and identified by their GFP and ANAP fluorescence. […]\nFluorescence spectra were collected as described above. […]",
  "note": "Several values for one entry are separate records, joined by “and”; a condition that tells them apart may be missing. Equal entries are not always repeated.",
  "data": [
    {"compound": "Nc1ncnc2c1ncn2[C@@H]1O[C@H](COP(=O)(O)OP(=O)(O)OP(=O)(O)O)[C@H]2OC3(O[C@H]21)C([N+](=O)[O-])=CC(=[N+]([O-])[O-])C=C3[N+](=O)[O-]", "note": "(stereo partly drawn) [TNP-ATP, trinitrophenyl-ATP]", "values": [
      {"measurement": "h (Hill coefficient) fluorescence quenching", "value": 0.92},
      {"measurement": "Emax", "setting": "fraction, read-out: Emax fluorescence quenching", "value": 96, "unit": "%"},
      {"measurement": "EC50", "setting": "n = 12, read-out: EC50 fluorescence quenching", "value": "32 µM and 31.6 µM"}
    ]}
  ]
}
